Laboratory results: ChEMBL document CHEMBL4364347, “Recent advances in class IIa histone deacetylases research” (Bioorg Med Chem, 2019)

How the values were obtained:
[1] = target: Histone deacetylase 1 (Homo sapiens, UniProt Q13547); assay: Inhibition of HDAC1 (unknown origin)
[2] = target: T1, Histone deacetylase 4 (Homo sapiens, UniProt P56524); assay: Inhibition of HDAC4 (unknown origin)
[3] = target: T2, Histone deacetylase 11 (Homo sapiens, UniProt Q96DB2); assay: Inhibition of HDAC11 (unknown origin)
T2 sequence (Q96DB2 whole entry): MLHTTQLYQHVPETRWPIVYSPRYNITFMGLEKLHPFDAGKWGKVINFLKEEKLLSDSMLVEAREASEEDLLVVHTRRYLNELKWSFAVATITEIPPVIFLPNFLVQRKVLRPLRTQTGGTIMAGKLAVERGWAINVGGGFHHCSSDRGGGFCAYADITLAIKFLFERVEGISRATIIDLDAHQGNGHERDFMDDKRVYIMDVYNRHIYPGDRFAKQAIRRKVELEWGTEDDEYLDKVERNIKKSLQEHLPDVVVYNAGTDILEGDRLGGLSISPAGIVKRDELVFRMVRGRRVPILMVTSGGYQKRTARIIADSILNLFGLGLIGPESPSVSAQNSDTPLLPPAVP

[4] = target: Histone deacetylase 2 (Homo sapiens, UniProt Q92769); assay: Inhibition of HDAC2 (unknown origin)
[5] = target: T3, Histone deacetylase 5 (Homo sapiens, UniProt Q9UQL6); assay: Inhibition of HDAC5 (unknown origin)
[6] = target: T4, Protein deacetylase HDAC6 (Homo sapiens, UniProt Q9UBN7); assay: Inhibition of HDAC6 (unknown origin)
T4 sequence (Q9UBN7 whole entry): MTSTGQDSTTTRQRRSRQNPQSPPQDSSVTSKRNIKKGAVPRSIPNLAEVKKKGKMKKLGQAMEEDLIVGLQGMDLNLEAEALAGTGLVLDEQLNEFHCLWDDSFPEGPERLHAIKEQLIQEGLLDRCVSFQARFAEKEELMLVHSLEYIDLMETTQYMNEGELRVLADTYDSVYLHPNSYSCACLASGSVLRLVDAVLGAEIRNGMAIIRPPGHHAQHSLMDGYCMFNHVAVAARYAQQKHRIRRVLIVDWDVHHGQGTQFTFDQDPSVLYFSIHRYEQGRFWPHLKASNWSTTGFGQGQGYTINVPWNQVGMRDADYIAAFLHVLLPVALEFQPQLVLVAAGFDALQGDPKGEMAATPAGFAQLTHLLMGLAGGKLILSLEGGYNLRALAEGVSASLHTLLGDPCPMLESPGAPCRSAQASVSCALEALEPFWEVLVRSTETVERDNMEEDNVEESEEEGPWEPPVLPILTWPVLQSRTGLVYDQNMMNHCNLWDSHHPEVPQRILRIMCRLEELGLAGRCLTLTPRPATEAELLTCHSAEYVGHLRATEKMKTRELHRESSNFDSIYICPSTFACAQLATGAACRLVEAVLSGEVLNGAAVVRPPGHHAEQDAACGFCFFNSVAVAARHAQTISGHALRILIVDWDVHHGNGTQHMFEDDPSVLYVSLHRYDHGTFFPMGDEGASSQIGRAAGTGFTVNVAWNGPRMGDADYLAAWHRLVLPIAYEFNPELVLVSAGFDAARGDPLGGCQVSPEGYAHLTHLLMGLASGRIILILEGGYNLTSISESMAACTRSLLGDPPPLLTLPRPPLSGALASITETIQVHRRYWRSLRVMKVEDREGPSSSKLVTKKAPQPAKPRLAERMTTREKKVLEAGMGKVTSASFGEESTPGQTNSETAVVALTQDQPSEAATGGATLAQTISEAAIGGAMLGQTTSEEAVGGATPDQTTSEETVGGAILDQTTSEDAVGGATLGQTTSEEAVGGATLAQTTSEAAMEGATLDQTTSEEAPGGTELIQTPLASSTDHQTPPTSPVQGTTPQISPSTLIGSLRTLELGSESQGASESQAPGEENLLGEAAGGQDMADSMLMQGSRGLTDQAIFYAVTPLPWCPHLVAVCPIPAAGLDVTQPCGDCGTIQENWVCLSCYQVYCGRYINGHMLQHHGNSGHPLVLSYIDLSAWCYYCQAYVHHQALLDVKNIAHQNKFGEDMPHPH

[7] = target: T5, Histone deacetylase 8 (Homo sapiens, UniProt Q9BY41); assay: Inhibition of HDAC8 (unknown origin)
T5 sequence (Q9BY41 whole entry): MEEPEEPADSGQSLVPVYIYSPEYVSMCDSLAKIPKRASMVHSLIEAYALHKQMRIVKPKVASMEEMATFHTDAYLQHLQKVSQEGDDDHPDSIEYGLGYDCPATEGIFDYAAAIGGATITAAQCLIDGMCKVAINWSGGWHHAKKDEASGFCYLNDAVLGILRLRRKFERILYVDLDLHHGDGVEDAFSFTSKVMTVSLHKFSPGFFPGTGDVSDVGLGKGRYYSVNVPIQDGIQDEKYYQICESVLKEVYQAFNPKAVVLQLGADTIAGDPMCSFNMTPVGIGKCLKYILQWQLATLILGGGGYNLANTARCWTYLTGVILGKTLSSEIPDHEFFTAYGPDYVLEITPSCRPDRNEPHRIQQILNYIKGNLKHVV

[8] = target: T6, Polyamine deacetylase HDAC10 (Homo sapiens, UniProt Q969S8); assay: Inhibition of HDAC10 (unknown origin)
T6 sequence (Q969S8 whole entry): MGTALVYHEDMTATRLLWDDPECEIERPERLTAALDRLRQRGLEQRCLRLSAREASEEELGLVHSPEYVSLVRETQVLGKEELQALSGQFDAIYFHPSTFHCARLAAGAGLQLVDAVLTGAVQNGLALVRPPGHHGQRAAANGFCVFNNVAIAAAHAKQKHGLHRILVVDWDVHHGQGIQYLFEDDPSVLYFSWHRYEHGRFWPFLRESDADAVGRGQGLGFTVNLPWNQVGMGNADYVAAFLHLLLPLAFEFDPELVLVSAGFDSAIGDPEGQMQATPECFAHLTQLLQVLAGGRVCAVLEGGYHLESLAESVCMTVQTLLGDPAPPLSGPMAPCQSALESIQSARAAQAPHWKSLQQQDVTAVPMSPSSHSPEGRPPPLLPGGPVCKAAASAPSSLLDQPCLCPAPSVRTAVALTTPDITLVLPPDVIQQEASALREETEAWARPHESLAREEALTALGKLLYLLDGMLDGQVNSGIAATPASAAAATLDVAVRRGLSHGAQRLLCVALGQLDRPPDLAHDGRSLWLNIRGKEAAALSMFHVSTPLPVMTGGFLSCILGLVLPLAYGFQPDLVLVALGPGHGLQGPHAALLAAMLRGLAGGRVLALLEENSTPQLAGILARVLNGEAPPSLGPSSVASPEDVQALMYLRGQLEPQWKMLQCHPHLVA

[9] = target: Histone deacetylase 3 (Homo sapiens, UniProt O15379); assay: Inhibition of HDAC3 (unknown origin)
[10] = target: T7, Histone deacetylase 9 (Homo sapiens, UniProt Q9UKV0); assay: Inhibition of HDAC9 (unknown origin)
[11] = target: T8, Histone deacetylase 7 (Homo sapiens, UniProt Q8WUI4); assay: Inhibition of HDAC7 (unknown origin)
T8 sequence (Q8WUI4 whole entry): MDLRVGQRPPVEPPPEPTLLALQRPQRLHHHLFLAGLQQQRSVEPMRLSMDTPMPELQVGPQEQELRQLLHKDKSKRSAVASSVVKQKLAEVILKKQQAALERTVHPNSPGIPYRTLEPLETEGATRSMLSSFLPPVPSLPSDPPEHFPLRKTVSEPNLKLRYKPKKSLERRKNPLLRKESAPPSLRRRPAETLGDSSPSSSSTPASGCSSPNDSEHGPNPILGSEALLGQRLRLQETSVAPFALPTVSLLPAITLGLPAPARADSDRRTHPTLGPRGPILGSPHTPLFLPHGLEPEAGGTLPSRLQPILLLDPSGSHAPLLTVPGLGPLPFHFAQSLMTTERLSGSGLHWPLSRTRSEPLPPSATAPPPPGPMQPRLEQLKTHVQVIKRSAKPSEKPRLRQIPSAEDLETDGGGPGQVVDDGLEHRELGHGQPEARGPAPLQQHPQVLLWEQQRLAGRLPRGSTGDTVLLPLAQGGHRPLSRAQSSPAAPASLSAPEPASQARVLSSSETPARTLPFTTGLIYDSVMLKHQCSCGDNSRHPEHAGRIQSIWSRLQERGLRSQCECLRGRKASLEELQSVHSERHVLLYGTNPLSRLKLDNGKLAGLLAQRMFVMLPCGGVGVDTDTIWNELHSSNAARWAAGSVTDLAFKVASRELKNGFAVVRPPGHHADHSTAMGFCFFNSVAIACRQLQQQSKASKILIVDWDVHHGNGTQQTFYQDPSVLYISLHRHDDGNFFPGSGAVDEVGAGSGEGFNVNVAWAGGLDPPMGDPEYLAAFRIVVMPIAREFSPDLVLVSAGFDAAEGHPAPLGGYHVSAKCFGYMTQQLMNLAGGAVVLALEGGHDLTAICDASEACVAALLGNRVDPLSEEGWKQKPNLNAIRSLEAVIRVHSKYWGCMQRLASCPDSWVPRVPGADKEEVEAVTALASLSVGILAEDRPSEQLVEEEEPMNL

[12] = target: T8, Histone deacetylase 7; assay: Inhibition of HDAC7 in human HeLa nuclear extract using Boc-Lys(Ac)-AMC as substrate preincubated for 5 mins followed by substrate addition measured after 30 mins by fluorometric assay; assay type: cell-free
[13] = target: T4, Protein deacetylase HDAC6; assay: Inhibition of HDAC6 in human HeLa nuclear extract using Boc-Lys(Ac)-AMC as substrate preincubated for 5 mins followed by substrate addition measured after 30 mins by fluorometric assay; assay type: cell-free
[14] = target: T7, Histone deacetylase 9; assay: Inhibition of HDAC9 in human HeLa nuclear extract using Boc-Lys(Ac)-AMC as substrate preincubated for 5 mins followed by substrate addition measured after 30 mins by fluorometric assay; assay type: cell-free
[15] = target: T1, Histone deacetylase 4; assay: Inhibition of HDAC4 in human HeLa nuclear extract using Boc-Lys(Ac)-AMC as substrate preincubated for 5 mins followed by substrate addition measured after 30 mins by fluorometric assay; assay type: cell-free
[16] = target: T3, Histone deacetylase 5; assay: Inhibition of HDAC5 in human HeLa nuclear extract using Boc-Lys(Ac)-AMC as substrate preincubated for 5 mins followed by substrate addition measured after 30 mins by fluorometric assay; assay type: cell-free

T1 sequence (P56524 whole entry): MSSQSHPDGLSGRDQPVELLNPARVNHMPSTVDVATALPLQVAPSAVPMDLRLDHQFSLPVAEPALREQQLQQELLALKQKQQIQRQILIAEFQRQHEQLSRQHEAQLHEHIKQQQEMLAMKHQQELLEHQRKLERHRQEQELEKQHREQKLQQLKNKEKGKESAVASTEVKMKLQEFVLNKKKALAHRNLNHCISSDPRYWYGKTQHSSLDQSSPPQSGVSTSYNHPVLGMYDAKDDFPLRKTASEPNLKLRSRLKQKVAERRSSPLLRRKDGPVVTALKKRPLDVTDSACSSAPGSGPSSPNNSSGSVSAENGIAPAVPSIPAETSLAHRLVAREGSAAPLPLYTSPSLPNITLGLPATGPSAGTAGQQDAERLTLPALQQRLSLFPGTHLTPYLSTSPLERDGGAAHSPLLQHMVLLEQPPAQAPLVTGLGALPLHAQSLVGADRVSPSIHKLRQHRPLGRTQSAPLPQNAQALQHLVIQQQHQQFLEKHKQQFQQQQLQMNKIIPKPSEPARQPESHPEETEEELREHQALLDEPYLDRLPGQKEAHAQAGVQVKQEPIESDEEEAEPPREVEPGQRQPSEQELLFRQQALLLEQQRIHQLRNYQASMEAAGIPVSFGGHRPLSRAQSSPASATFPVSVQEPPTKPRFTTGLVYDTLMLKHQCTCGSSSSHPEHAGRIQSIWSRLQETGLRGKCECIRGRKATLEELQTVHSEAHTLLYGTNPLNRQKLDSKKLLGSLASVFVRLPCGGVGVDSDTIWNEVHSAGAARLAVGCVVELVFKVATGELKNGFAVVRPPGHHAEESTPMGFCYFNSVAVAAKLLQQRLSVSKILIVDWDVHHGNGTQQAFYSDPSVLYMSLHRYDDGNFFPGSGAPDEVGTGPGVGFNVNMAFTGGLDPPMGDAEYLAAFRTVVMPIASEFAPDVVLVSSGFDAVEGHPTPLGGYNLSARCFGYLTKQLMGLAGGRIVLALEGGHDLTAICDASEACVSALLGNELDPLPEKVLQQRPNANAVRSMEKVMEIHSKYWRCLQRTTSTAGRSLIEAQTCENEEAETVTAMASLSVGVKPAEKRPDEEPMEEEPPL
T7 sequence (Q9UKV0 whole entry): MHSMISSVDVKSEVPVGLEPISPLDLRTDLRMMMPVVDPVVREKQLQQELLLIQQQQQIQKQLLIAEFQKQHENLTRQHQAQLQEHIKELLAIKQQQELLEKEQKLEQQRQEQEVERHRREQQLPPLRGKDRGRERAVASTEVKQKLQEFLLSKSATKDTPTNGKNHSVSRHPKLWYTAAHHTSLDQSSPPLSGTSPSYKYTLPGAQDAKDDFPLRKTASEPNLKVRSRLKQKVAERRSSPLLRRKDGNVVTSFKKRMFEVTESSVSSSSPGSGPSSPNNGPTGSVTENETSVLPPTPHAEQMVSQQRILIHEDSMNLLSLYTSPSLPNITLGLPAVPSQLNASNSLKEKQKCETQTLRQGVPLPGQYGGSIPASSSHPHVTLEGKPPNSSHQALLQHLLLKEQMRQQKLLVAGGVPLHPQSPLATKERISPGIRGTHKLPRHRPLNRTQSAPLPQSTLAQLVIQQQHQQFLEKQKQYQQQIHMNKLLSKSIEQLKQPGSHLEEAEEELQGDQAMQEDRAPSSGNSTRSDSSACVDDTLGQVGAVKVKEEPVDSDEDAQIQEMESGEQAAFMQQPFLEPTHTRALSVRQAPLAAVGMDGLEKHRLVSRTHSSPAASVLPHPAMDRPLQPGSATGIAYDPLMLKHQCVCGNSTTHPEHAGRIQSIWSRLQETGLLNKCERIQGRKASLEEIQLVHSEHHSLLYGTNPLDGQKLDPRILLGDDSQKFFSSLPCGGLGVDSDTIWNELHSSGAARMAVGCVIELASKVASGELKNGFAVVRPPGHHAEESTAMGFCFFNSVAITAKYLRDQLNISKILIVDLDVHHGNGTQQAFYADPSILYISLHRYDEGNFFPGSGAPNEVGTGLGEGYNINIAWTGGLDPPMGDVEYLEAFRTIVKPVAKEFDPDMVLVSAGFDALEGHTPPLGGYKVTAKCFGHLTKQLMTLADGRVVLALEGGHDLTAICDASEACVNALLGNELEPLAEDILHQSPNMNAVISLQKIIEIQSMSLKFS
T3 sequence (Q9UQL6 whole entry): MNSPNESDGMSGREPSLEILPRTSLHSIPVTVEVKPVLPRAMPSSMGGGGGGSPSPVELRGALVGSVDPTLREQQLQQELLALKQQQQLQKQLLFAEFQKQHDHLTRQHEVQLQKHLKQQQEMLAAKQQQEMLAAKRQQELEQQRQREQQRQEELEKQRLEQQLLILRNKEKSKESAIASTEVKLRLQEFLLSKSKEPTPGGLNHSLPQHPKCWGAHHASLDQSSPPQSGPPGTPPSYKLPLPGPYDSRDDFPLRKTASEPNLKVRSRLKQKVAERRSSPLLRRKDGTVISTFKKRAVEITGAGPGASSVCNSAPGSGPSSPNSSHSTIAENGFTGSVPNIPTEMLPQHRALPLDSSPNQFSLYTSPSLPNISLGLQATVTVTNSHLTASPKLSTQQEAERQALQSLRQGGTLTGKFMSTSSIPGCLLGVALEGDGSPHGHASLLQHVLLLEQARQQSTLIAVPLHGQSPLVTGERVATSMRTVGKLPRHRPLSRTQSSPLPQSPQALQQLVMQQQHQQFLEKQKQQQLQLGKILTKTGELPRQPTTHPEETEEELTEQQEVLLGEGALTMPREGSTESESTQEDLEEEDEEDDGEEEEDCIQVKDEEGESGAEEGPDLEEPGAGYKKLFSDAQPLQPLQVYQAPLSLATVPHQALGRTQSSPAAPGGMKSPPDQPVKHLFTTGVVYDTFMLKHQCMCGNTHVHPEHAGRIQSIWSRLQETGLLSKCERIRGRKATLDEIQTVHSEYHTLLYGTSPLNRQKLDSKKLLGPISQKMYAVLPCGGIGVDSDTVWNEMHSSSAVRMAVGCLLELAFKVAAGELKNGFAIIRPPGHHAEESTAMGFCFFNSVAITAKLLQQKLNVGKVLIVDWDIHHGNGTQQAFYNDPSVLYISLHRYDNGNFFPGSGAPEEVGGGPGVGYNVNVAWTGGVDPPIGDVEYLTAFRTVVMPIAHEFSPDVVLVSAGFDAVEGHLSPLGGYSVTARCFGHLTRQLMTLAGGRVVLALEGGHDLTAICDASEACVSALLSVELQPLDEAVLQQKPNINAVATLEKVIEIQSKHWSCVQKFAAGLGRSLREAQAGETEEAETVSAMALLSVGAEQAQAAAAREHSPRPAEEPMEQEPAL
Sequence of Histone deacetylase 1 (Q13547 whole entry): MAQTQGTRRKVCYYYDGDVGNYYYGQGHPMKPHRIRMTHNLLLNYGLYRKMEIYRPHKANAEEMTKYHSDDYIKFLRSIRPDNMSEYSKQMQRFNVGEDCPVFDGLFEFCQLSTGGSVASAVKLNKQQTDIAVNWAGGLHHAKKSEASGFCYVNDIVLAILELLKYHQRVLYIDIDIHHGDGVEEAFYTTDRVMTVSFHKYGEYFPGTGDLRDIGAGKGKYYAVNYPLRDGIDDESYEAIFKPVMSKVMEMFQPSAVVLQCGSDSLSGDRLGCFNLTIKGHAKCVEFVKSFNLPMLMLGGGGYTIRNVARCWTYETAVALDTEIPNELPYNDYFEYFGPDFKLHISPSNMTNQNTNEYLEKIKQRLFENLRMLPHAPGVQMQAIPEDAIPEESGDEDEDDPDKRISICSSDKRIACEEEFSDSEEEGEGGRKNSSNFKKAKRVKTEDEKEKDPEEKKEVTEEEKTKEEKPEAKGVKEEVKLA
Sequence of Histone deacetylase 2 (Q92769 whole entry): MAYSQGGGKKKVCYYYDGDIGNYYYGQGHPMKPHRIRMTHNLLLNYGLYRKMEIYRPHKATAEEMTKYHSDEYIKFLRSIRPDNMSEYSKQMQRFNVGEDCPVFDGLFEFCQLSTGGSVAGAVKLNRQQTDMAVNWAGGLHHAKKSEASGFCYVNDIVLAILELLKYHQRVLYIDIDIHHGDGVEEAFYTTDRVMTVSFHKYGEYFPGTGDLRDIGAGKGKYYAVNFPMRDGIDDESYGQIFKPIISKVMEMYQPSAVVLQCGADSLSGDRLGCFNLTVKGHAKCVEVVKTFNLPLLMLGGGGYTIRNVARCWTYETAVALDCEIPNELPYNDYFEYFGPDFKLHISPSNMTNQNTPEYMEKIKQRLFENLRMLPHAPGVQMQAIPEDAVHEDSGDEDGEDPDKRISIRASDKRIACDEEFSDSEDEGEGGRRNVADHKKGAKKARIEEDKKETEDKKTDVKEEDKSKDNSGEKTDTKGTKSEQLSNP
Sequence of Histone deacetylase 3 (O15379 whole entry): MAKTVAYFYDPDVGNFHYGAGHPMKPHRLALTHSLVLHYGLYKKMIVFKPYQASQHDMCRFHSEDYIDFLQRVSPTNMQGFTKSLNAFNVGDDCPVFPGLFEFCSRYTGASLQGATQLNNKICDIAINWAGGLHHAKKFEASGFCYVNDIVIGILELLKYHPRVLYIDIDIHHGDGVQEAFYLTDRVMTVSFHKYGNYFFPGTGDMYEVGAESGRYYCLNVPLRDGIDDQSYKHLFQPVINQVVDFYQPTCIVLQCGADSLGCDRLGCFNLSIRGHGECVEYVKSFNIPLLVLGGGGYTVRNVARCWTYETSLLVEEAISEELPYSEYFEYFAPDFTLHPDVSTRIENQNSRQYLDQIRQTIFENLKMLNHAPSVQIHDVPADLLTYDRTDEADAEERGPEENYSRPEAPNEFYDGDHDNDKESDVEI

Structure (SMILES)	Ki [1] [µM]	Ki [2] [µM]	Ki [3] [µM]	Ki [4] [µM]	Ki [5] [µM]	Ki [6] [µM]	Ki [7] [µM]	Ki [8] [µM]	Ki [9] [µM]	Ki [10] [µM]	other results
CN1CCC(CNC(=O)c2cccc(-c3noc(C(F)(F)F)n3)c2)(c2nc(-c3ccccc3)cs2)CC1	> 23	0.075	> 19	> 19	0.182	2.81	7.66	> 10	> 43	0.008	–
CN1CCC(CNC(=O)c2cccc(C(=O)NO)c2)(c2nc(-c3ccccc3)cs2)CC1	11.9	23.8	> 19	> 19	24.3	0.189	1.33	> 10	> 43	5.98	Ki [11]: 3.94 µM
CN(Cc1cnc2nc(N)nc(N)c2n1)c1ccc(C(=O)NC(CCP(=O)(O)O)P(=O)(O)O)cc1 (stereo unspecified)	–	–	–	–	–	–	–	–	–	–	IC50 [12]: > 40 µM; IC50 [11]: 16.2 µM; IC50 [13]: > 40 µM; IC50 [2]: 4.16 µM; IC50 [14]: > 40 µM; IC50 [5]: 1.27 µM; IC50 [6]: > 40 µM; IC50 [15]: > 40 µM; IC50 [16]: > 40 µM; IC50 [10]: 7.84 µM
